From patent US10155948B2, “Pharmaceutical composition for preventing or treating diabetic complications and screening method for preventive or therapeutic agent for diabetic complications” (KANGWON NATIONAL UNIVERSITY UNIVERSITY-INDUSTRY COOPERATION …, priority 2016, dated 2018)

Experiments:
retinas of diabetic mice = test: Vascular leakage in retina of diabetic mice (fluorescein angiography, FITC-dextran); format: in vivo, mouse; conditions: for increase of vascular leakage in retinas of diabetic mice: intravitreal injection, 0.5 mM dopamine, 500 mM cysteamine, n=6; for vascular leakage in diabetic retina (FITC-dextran extravasation): diabetic mice, intravitreal 2 μl 50 mM cystamine or 20 mM MDC, after 24 hrs, p<0.001, n=8
Procedure: Two weeks after streptozotocin injection, diabetic mice were intravitreally injected with 2 μl of TGase inhibitors (50 mM cystamine or 20 mM MDC), 1 μM C-peptide (American Peptide Company, Sunnyvale, Calif.), ROS scavengers (2 μM Trolox or 500 mM NAC), or 65 μM mouse TG2-specific siRNA (Dharmacon, Lafayette, Colo.) into one eye and an equal volume of PBS or mouse control siRNA (Dharmacon, Lafayette, Colo.) into the contralateral eye. Non-diabetic mice were also intravitreally injected with 2 μl of PBS or mouse control siRNA into the eyes. After 24 hrs for inhibitors or C-peptide or 48 hrs for mouse TGase2 siRNA, mice were subjected to measurement of in-vivo TGase activity and vascular leakage from the retina.
Microvascular leakage in mouse retina was investigated via the fluorescein angiography method as previously described. In brief, 24 hrs or 48 hrs after intravitreal injection of TGase2 inhibitors or mouse TGase2 siRNA, respectively, mice were deeply anaesthetized and 1.25 mg of 500 kDa FITC-dextran (Sigma) was injected into the left ventricle. The dye was allowed to circulate for 5 min and mice were sacrificed via cervical dislocation. The eyes were enucleated and immediately fixed with 4% paraformaldehyde for 45 min. Retinas were dissected in the Maltese cross-configuration and flat-mounted onto glass slides. The superficial vessels of the retinas (n=8 per group) were observed by confocal microscopy and vascular leakage was quantitatively analyzed using the Fluoview software by determining the fluorescence intensities of FITC-dextran extravasated from the retina vessel.
Six-week-old male C57BL/6 mice were obtained from KOATECH (Pyeongtaek, Korea). TGase2^−/− mice (C57BL/6) were prepared by disrupting exons 5 and 6 of TGase2 by homologous recombination, as previously described. Diabetic mice were generated by a single intraperitoneal injection of streptozotocin (150 mg/kg body weight, Sigma) freshly prepared in 100 mM citrate buffer (pH 4.5) as previously described. Mice with non-fasting blood glucose levels greater than 19 mM, polyuria and glucosuria were considered diabetic. Experiments were performed in strict accordance with the guidelines of the Institutional Animal Care and Use Ethics Committee of Kangwon National University.
(A, B) Streptozotocin-diabetic mice were intravitreally injected with PBS (diabetic), cystamine (diabetic+Cys) or MDC (diabetic+MDC) into the eyes. Non-diabetic mice were also intravitreally injected with PBS into eyes (normal). […] (B) Retina permeability was quantified by measuring the fluorescence intensities of FITC-dextran in (A). […]
Dopamine and cysteamine were intravitreally injected into mouse eyes, and diabetic retinas were then analyzed for vascular leakage through fluorescein angiography.

HRECs = test: Visualization of actin filaments (stress fiber formation) in HRECs; format: cell-based, human; conditions: for VEGF-induced stress fiber formation: summary statement, conditions not given; for VEGF-activated stress fiber formation: HRECs, 50 μM cystamine or 20 μM MDC 30 min, 10 ng/ml VEGF
Procedure: (§1) Actin filaments and VE-cadherin were visualized as previously described. For visualization of actin filaments, cells were treated with 10 ng/ml VEGF for 1 hr at 37° C., fixed with 3.7% formaldehyde, and permeabilized with 0.2% Triton X-100. […] For visualization of VE-cadherin, cells were preincubated with the TGase2 inhibitors for 30 min and treated with 10 ng/ml VEGF for 90 min at 37° C. Following fixation and permeabilization, cells were incubated overnight with a monoclonal anti-VE-cadherin antibody (1:200, Santa Cruz Biotechnology) at 4° C. Cells were then probed with an FITC-conjugated goat anti-mouse antibody (1:200, Sigma) and VE-cadherin was visualized using confocal microscopy. Adherens junctions are represented by histograms of VE-cadherin as indicated by dotted lines and were quantitatively analyzed using peak fluorescence intensities of the histograms at the single-cell level for 10 randomly selected cells per experiment.
(§2) (A-C) HRECs were preincubated with 50 μM cystamine (Cys) and 20 μM MDC for 30 min and treated with 10 ng/ml VEGF. Stress fibers and VE-cadherin were stained and visualized by confocal microscopy as described in Research Design and Methods (n=3) ((A) Representative images of stress fibers. Scale Bar, 30 μm. (B) Representative images of VE-cadherin. Scale Bar, 10 μm). Adherens junctions are represented by histograms of VE-cadherin as indicated by dotted lines. (C) Adherens junctions were quantitatively analyzed using the peak fluorescence intensities of the histograms at the single-cell level. The results are expressed as mean±SD from three independent trials. (D) In-vitro endothelial cell monolayer permeability assay. HRECs on inserts of Transwell® Permeable Supports were incubated with 50 μM cystamine and 20 μM MDC for 30 min and treated with 10 ng/mL VEGF for 90 min. The amount of FITC-dextran that diffused to the lower chamber was measured by a microplate spectrofluorometer (n=3) (**p<0.01).
(§3) HRECs were transfected with 100 nM human TGase2-specific siRNA (TGase2 siRNA) or 100 nM control (Ctrl) siRNA. Endothelial cells were treated with 10 ng/ml VEGF and subjected to the confocal microscopic visualization of stress fibers (A) and VE-cadherin (B), as described in Research Design and Methods (n=3). (A) TGase2 siRNA inhibition of VEGF-induced formation of stress fibers. Scale bar, 30 μm. (B) Representative images of VE-cadherin and adherens junctions represented by VE-cadherin histograms. Scale bar, 10 μm. (C) Adherens junctions were quantitatively analyzed using peak fluorescence intensities of the histograms at the single-cell level. Results are expressed as mean±SD from three independent experiments (***p<0.001).

VE-cadherin = test: Visualization of VE-cadherin (adherens junction disruption) in HRECs; format: cell-based, human; conditions: for VEGF-induced VE-cadherin disruption: summary statement, conditions not given; for VEGF-induced VE-cadherin breakdown: HRECs, 50 μM cystamine or 20 μM MDC 30 min, 10 ng/ml VEGF
Procedure: as §1, §2, §3

Compound	increase of vascular leakage in retinas of diabetic mice (retinas of diabetic mice)	VEGF-induced stress fiber formation (HRECs)	VEGF-induced VE-cadherin disruption (VE-cadherin)	vascular leakage in diabetic retina (FITC-dextran extravasation) (retinas of diabetic mice)	VEGF-activated stress fiber formation (HRECs)	VEGF-induced VE-cadherin breakdown (VE-cadherin)
NCCc1ccc(O)c(O)c1 [dopamine]	inhibited	prevented	prevented	–	–	–
NCCS [cysteamine]	inhibited	prevented	prevented	–	–	–
CN(C)c1cccc2c(S(=O)(=O)NCCCCCN)cccc12 [MDC, monodansylcadaverine]	–	–	–	prevented	prevented	inhibited
NCCSSCCN [cystamine]	–	–	–	prevented	prevented	inhibited
